# In patent US20230089247A1, “NOVEL COMPOUNDS SUITABLE FOR THE TREATMENT OF DYSLIPIDEMIA” (ZYDUS LIFESCIENCES LIMITED, priority 2019, published 2023):
# Molecular target: PCSK9 (Homo sapiens, UniProt Q8NBP7)
# Test: BODIPY-LDL uptake assay in HepG2 cells
# Type: cell-based
# Conditions: 5 μg/ml PCSK9, BODIPY-LDL
# Procedure, shortened: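 Compounds pre-incubated 60 min with 5 μg/ml PCSK9 (0.2% DMSO), then added to HepG2 cells for 16 h; 1 μg/ml BODIPY-LDL added in serum-free medium for 5 h. Fluorescence (Ex 485/Em 520 nm) normalized to protein; PCSK9-only wells = 0%, no-PCSK9 wells = 100% uptake, giving percent increase in LDL uptake.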
# Chain of PCSK9 (Q8NBP7 153-692): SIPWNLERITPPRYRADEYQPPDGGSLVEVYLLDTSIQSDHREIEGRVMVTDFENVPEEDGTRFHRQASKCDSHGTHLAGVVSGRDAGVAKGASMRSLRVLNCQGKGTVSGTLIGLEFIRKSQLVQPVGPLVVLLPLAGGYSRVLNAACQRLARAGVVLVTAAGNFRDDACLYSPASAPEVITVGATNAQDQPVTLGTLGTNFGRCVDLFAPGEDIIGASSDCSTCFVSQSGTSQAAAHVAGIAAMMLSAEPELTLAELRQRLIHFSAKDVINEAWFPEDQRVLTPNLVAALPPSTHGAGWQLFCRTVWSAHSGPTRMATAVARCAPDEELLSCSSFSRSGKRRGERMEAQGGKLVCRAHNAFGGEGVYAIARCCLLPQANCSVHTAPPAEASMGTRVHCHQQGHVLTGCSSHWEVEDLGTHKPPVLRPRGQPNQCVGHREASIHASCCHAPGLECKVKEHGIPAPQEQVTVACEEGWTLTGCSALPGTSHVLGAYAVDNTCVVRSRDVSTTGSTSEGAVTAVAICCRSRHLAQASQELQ
Structure (SMILES),% increase in LDL Uptake (1 μM test compound),% increase in LDL Uptake (10 μM test compound),% increase in LDL Uptake (30 μM test compound)
"CC(C)COC1(c2ccc(C(=O)N3CC4CN(c5ccc(C(F)(F)F)cc5)CC4C3)cc2)COC1 (stereo not drawn) [Example 135, (4-(3-isobutoxyoxetan-3-yl)phenyl)(5-(4-(trifluoromethyl)phenyl)hexahydropyrrolo[3,4-c]pyrrol-2(1H)-yl)methanone]",5%,17%,47%
"CC(C)OC1(c2ccc(C(=O)N3CC4CN(c5ccc(C(F)(F)F)cc5)CC4C3)cc2)COC1 (stereo not drawn) [Example 136, (4-(3-isopropoxyoxetan-3-yl)phenyl)(5-(4-(trifluoromethyl)phenyl)hexahydropyrrolo[3,4-c]pyrrol-2(1H)-yl)methanone]",11%,12%,14%
"COCCOC1(c2ccc(C(=O)N3CC4CN(c5ccc(C(F)(F)F)cc5)CC4C3)cc2)COC1 (stereo not drawn) [Example 137, (4-(3-(2-methoxyethoxy)oxetan-3-yl)phenyl)(5-(4-(trifluoromethyl)phenyl)hexahydropyrrolo[3,4-c]pyrrol-2(1H)-yl)methanone]",0%,66%,116%
"O=C(c1ccc(C2(O)CCNCC2)cc1)N1CCC(c2ccc(C(F)(F)F)cc2)CC1 [Example 141, (4-(4-hydroxypiperidin-4-yl)phenyl)(4-(4-(trifluoromethyl)phenyl)piperidin-1-yl)methanone]",0%,0%,28%
"COC1(c2ccc(C(=O)N3CCC(c4ccc(C(F)(F)F)cc4)CC3)cc2)CCOCC1 [Example 143, (4-(4-methoxytetrahydro-2H-pyran-4-yl)phenyl)(4-(4-(trifluoromethyl)phenyl)piperidin-1-yl)methanone]",0%,41%,28%
"O=C(c1ccc(C2(O)CSC2)cc1)N1CCC(c2ccc(C(F)(F)F)cc2)CC1 [Example 145, (4-(3-hydroxythietan-3-yl)phenyl)(4-(4-(trifluoromethyl)phenyl)piperidin-1-yl)methanone]",2%,70%,0%
"O=C(c1ccc(C2(O)CSC2)cc1)N1CC2CN(c3ccc(C(F)(F)F)cc3)CC2C1 (stereo not drawn) [Example 146, (4-(3-hydroxythietan-3-yl)phenyl)(5-(4-(trifluoromethyl)phenyl)hexahydropyrrolo[3,4-c]pyrrol-2(1H)-yl)methanone]",53%,212%,29%
"CCOC1(c2ccc(C(=O)N3CCC(c4ccc(C(F)(F)F)cc4)CC3)cc2)CSC1 [Example 148, (4-(3-ethoxythietan-3-yl)phenyl)(4-(4-(trifluoromethyl)phenyl)piperidin-1-yl)methanone]",20%,3%,11%
"COC1(c2ccc(C(=O)N3CC4CN(c5ccc(C(F)(F)F)cc5)CC4C3)cc2)CSC1 (stereo not drawn) [Example 149, (4-(3-methoxythietan-3-yl)phenyl)(5-(4-(trifluoromethyl)phenyl)hexahydropyrrolo[3,4-c]pyrrol-2(1H)-yl)methanone]",0%,30%,9%
"CCOC1(c2ccc(C(=O)N3CC4CN(c5ccc(C(F)(F)F)cc5)CC4C3)cc2)CSC1 (stereo not drawn) [Example 150, (4-(3-ethoxythietan-3-yl)phenyl)(5-(4-(trifluoromethyl)phenyl)hexahydropyrrolo[3,4-c]pyrrol-2(1H)-yl)methanone]",0%,5%,25%
"CC(C)(C)OC(=O)N1CCC(O)(c2ccc(C(=O)N3CCC(c4ccc(C(F)(F)F)cc4)CC3)cc2)C1 (stereo not drawn) [Example 151, tert-butyl 3-hydroxy-3-(4-(4-(4-(trifluoromethyl)phenyl)piperidine-1-carbonyl)phenyl)pyrrolidine-1-carboxylate]",34%,0%,0%
"O=C(c1ccc(C2(O)CCNC2)cc1)N1CCC(c2ccc(C(F)(F)F)cc2)CC1 (stereo not drawn) [Example 152, (4-(3-hydroxypyrrolidin-3-yl)phenyl)(4-(4-(trifluoromethyl)phenyl)piperidin-1-yl)methanone]",0%,0%,31%
"COC1(c2ccc(C(=O)N3CCC(c4ccc(C(F)(F)F)cc4)CC3)cc2)CCNC1 (stereo not drawn) [Example 153, (4-(3-methoxypyrrolidin-3-yl)phenyl)(4-(4-(trifluoromethyl)phenyl)piperidin-1-yl)methanone]",0%,47%,46%
"O=C(c1ccc(C2(O)CNC2)cc1)N1CCC(c2ccc(C(F)(F)F)cc2)CC1 [Example 155, (4-(3-hydroxyazetidin-3-yl)phenyl)(4-(4-(trifluoromethyl)phenyl)piperidin-1-yl)methanone]",0%,0%,58%
"COC1(c2ccc(C(=O)N3CCC(c4ccc(C(F)(F)F)cc4)CC3)cc2)CCN(C(C)=O)CC1 [Example 158, 1-(4-methoxy-4-(4-(4-(4-(trifluoromethyl)phenyl)piperidine-1-carbonyl)phenyl)piperidin-1-yl)ethan-1-one]",0%,42%,0%
"CCOC1(c2ccc(C(=O)N3CCC(c4ccc(C(F)(F)F)cc4)CC3)cc2)CCN(C(=O)OC(C)(C)C)CC1 [Example 161, tert-butyl 4-ethoxy-4-(4-(4-(4-(trifluoromethyl)phenyl)piperidine-1-carbonyl)phenyl) piperidine-1-carboxylate]",0%,0%,16%
"O=C(c1ccc(C2(O)COC2)cc1)N1CCc2nc(-c3ccc(C(F)(F)F)cc3)sc2C1 [Example 175, (4-(3-hydroxyoxetan-3-yl)phenyl)(2-(4-(trifluoromethyl)phenyl)-6,7-dihydrothiazolo[5,4-c]pyridin-5(4H)-yl)methanone]",17%,0%,0%
"O=C(c1cccc(C2(O)COC2)c1)N1CCc2scc(-c3ccc(C(F)(F)F)cc3)c2C1 [Example 176, (3-(3-hydroxyoxetan-3-yl)phenyl)(3-(4-(trifluoromethyl)phenyl)-6,7-dihydrothieno[3,2-c]pyridin-5(4H)-yl)methanone]",0%,12%,68%
"CCOC1(c2cccc(C(=O)N3CC4CN(c5ccc(C(F)(F)F)cc5)CC4C3)c2)COC1 (stereo not drawn) [Example 178, (3-(3-ethoxyoxetan-3-yl)phenyl)(5-(4-(trifluoromethyl)phenyl)hexahydropyrrolo[3,4-c]pyrrol-2(1H)-yl)methanone]",0%,51%,47%
"O=C(c1cccc(C2(OCC3CC3)COC2)c1)N1CC2CN(c3ccc(C(F)(F)F)cc3)CC2C1 (stereo not drawn) [Example 181, (3-(3-(cyclopropylmethoxy)oxetan-3-yl)phenyl)(5-(4-(trifluoromethyl)phenyl)hexahydropyrrolo[3,4-c]pyrrol-2(1H)-yl)methanone]",3%,19%,26%
"COC1(c2cccc(NC(=O)N3CC4CN(c5ccc(C(F)(F)F)cc5)CC4C3)c2)COC1 (stereo not drawn) [Example 183, N-(3-(3-methoxyoxetan-3-yl)phenyl)-5-(4-(trifluoromethyl)phenyl) hexahydropyrrolo[3,4-c]pyrrole-2(1H)-carboxamide]",32%,15%,88%
"COC1(c2ccc(C(=O)N3CCCN(c4ccc(C(F)(F)F)cc4)CC3)cc2)COC1 [Example 185, (4-(3-methoxyoxetan-3-yl)phenyl)(4-(4-(trifluoromethyl)phenyl)-1,4-diazepan-1-yl)methanone]",0%,29%,109%
"O=C(c1ccc(C2(O)COC2)cc1)N1CCC2(CCN(c3ccc(C(F)(F)F)cc3)CC2)C1 [Example 186, (4-(3-hydroxyoxetan-3-yl)phenyl)(8-(4-(trifluoromethyl)phenyl)-2,8-diazaspiro[4.5]decan-2-yl)methanone]",17%,73%,31%
"O=C(c1ccc(C2(OCCO)COC2)cc1)N1CCC(c2ccc(C(F)(F)F)cc2)CC1 [Example 188, (4-(3-(2-hydroxyethoxy)oxetan-3-yl)phenyl)(4-(4-(trifluoromethyl)phenyl)piperidin-1-yl)methanone]",0%,152%,136%
"CCSCCOC1(c2ccc(C(=O)N3CCC(c4ccc(C(F)(F)F)cc4)CC3)cc2)COC1 [Example 189, (4-(3-(2-(ethylthio)ethoxy)oxetan-3-yl)phenyl)(4-(4-(trifluoromethyl)phenyl)piperidin-1-yl)methanone]",0%,116%,19%
"CCS(=O)(=O)CCOC1(c2ccc(C(=O)N3CCC(c4ccc(C(F)(F)F)cc4)CC3)cc2)COC1 [Example 190, (4-(3-(2-(ethylsulfonyl)ethoxy)oxetan-3-yl)phenyl)(4-(4-(trifluoromethyl)phenyl)piperidin-1-yl)methanone]",0%,90%,62%
